Assay results reported in patent US7119073B2, “Peptides and their use as inhibitors of hepatitis C virus ns3 protease” (Istituto Di Ricerche Di Biologia Molecolare P. Angeletti SpA, priority 2001, dated 2006).
Where a SMILES comes first, the peptide text is derived from it. The star is where a group is joined. NHPhenethyl = c1ccc(CCN*)cc1; Cbz = O=C(OCc1ccccc1)*; Boc = CC(C)(C)OC(=O)*

target: T1, NS3 protease domain complexed to a modified form of the NS4A peptide (Pep4AK) (Hepatitis C virus genotype 1b, UniProt P26663); experiment: HCV NS3 protease domain/NS4A cofactor peptide assay (Assay B); type: biochemical; details: NS3 protease domain/NS4A cofactor peptide assay; read-out: Assay B (IC50 class)
T1 construct: NS3 protease domain (residues 1027–1206 of the HCV polyprotein)
T1 sequence (P26663 1027-1206, other chains not shown): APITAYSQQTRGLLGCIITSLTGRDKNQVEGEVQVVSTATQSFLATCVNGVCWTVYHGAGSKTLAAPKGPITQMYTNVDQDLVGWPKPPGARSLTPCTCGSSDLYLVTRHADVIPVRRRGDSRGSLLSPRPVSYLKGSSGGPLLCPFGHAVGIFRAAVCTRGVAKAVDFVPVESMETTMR

Row | Compound | IC50 [µM]
1 | CC(C)C[C@H](NC(=O)C1(Cc2cccc(C(=O)O)c2)Cc2ccccc2N1)C(=O)N[C@@H](CS)C(=O)NCCc1ccc(C(=O)O)cc1 (mixture of isomers) [Compound 701] | < 100
2 | CC(C)C[C@H](NC(=O)C1(Cc2ccc(C(=O)O)s2)Cc2ccccc2N1)C(=O)N[C@@H](CS)C(=O)NCCc1ccc(C(=O)O)cc1 (mixture of isomers) [Compound 703] | < 100
3 | CC(C)C[C@H](NC(=O)C1(Cc2ccc(C(=O)O)cc2)Cc2ccccc2N1)C(=O)N[C@@H](CS)C(=O)NCCc1ccc(C(=O)O)cc1 (single isomer, unassigned) [Compound 702] | < 100
4 | CC(C)C[C@H](NC(=O)C1(Cc2ccc(C(=O)O)s2)CCc2ccccc2N1)C(=O)N[C@@H](CC(F)F)C(=O)NCCc1ccc(C(=O)O)cc1Cl (single isomer, unassigned) [Compound 711a] | < 100
5 | CC(C)C[C@H](NC(=O)C1(Cc2cccc(C(=O)O)c2)CCc2ccccc2N1)C(=O)N[C@@H](CC(F)F)C(=O)NCCc1ccc(C(=O)O)cc1Cl (single isomer, unassigned) [Compound 712a] | < 100
6 | CC(C)C[C@H](NC(=O)C1(Cc2ccsc2C(=O)O)CCc2ccccc2N1)C(=O)N[C@@H](CC(F)F)C(=O)NCCc1c(F)cc(C(=O)O)cc1F (single isomer, unassigned) [Compound 713] | < 100
7 | CC(C)C[C@H](NC(=O)C1(Cc2ccsc2C(=O)O)CCc2ccccc2N1)C(=O)N[C@@H](CC(F)F)C(=O)NCCc1cccc(/C=C/C(=O)O)c1 (single isomer, unassigned) [Compound 714] | < 100

same assay, conditions: Table 1; NS3 protease domain/Pep4AK, 4AB peptide substrate; read-out: Assay B

Row | IC50 [µM] | Compound
8 | < 100 | CC(C)COC(=O)N[C@@H](CCC(=O)O)C(=O)N[C@@H](CC(C)C)C(=O)N[C@@H](CS)C(=O)NCC(O)c1ccccc1 (mixture of isomers) [Compound 106]
9 | < 100 | CC(C)COC(=O)N[C@@H](CCC(=O)O)C(=O)N[C@@H](CC(C)C)C(=O)N[C@@H](CS)C(=O)NCC(C)c1ccccc1 (mixture of isomers) [Compound 107]
10 | < 100 | CC(C)C[C@H](NC(=O)[C@H](CCC(=O)O)NC(=O)OCc1ccccc1)C(=O)N[C@@H](CS)C(=O)NCCc1ccccc1 [Compound 101] (Cbz-Glu-Leu-Cys-NHPhenethyl)
11 | < 100 | CC(C)C[C@H](NC(=O)[C@@H](NC(=O)OCc1ccc(C(=O)O)cc1)C(C)C)C(=O)N[C@@H](CS)C(=O)NCCc1ccccc1 [Compound 102]
12 | < 100 | CC(C)CC(NC(=O)C(CCC(=O)O)NC(=O)OC(C)(C)C)C(=O)NC(CS)C(=O)NCCc1ccccc1 (stereo not drawn) [Compound 103] (Boc-Glu-Leu-Cys-NHPhenethyl; configuration not given here)
13 | < 100 | CC(C)COC(=O)N[C@@H](CCC(=O)O)C(=O)N[C@@H](CC(C)C)C(=O)N[C@@H](CS)C(=O)NC[C@H](C)c1ccccc1 [Compound 108]
14 | < 100 | CC(C)COC(=O)N[C@@H](CCC(=O)O)C(=O)N[C@@H](CC(C)C)C(=O)N[C@@H](CS)C(=O)NCC1(c2ccccc2)CC1 [Compound 109]
15 | < 100 | CC(C)COC(=O)NC(CCC(=O)O)C(=O)NC(CC(C)C)C(=O)NC(CS)C(=O)NCC1(c2ccccc2)CCC1 (stereo not drawn) [Compound 110]
16 | < 100 | CC(C)COC(=O)N[C@@H](CCC(=O)O)C(=O)N[C@@H](CC(C)C)C(=O)N[C@@H](CS)C(=O)NCC(CC(=O)O)c1ccc(Cl)cc1 (stereo partly drawn) [Compound 111]
17 | < 100 | CC(C)COC(=O)NC(CCC(=O)O)C(=O)NC(CC(C)C)C(=O)NC(CS)C(=O)NCCc1ccccc1F (stereo not drawn) [Compound 112]
18 | < 100 | CC(C)COC(=O)NC(CCC(=O)O)C(=O)NC(CC(C)C)C(=O)NC(CS)C(=O)NCCc1ccccc1Cl (stereo not drawn) [Compound 113]
19 | < 100 | CC(C)CC(NC(=O)C(CCC(=O)O)NC(=O)OCc1ccccc1)C(=O)NC(CS)C(=O)NCCc1ccccc1Cl (stereo not drawn) [Compound 116]
20 | < 100 | CC(C)COC(=O)NC(CCC(=O)O)C(=O)NC(CC(C)C)C(=O)NC(CS)C(=O)NCCc1ccccc1Br (stereo not drawn) [Compound 117]
21 | < 100 | Cc1ccccc1CCNC(=O)C(CS)NC(=O)C(CC(C)C)NC(=O)C(CCC(=O)O)NC(=O)OCC(C)C (stereo not drawn) [Compound 118]
22 | < 100 | COc1ccccc1CCNC(=O)C(CS)NC(=O)C(CC(C)C)NC(=O)C(CCC(=O)O)NC(=O)OCC(C)C (stereo not drawn) [Compound 119]
23 | < 100 | CCOc1ccccc1CCNC(=O)C(CS)NC(=O)C(CC(C)C)NC(=O)C(CCC(=O)O)NC(=O)OCC(C)C (stereo not drawn) [Compound 120]
24 | < 100 | CC(C)COC(=O)NC(CCC(=O)O)C(=O)NC(CC(C)C)C(=O)NC(CS)C(=O)NCCc1ccccc1C(F)(F)F (stereo not drawn) [Compound 121]
25 | < 100 | COC(=O)c1ccccc1CCNC(=O)C(CS)NC(=O)C(CC(C)C)NC(=O)C(CCC(=O)O)NC(=O)OCC(C)C (stereo not drawn) [Compound 122]
26 | < 100 | CC(C)COC(=O)NC(CCC(=O)O)C(=O)NC(CC(C)C)C(=O)NC(CS)C(=O)NCCc1ccccc1Oc1ccccc1 (stereo not drawn) [Compound 123]
27 | < 100 | CC(C)COC(=O)NC(CCC(=O)O)C(=O)NC(CC(C)C)C(=O)NC(CS)C(=O)NCCc1ccccc1OCc1ccccc1 (stereo not drawn) [Compound 124]
28 | < 100 | CC(C)COC(=O)NC(CCC(=O)O)C(=O)NC(CC(C)C)C(=O)NC(CS)C(=O)NCCc1cccc(F)c1 (stereo not drawn) [Compound 126]
29 | < 100 | CC(C)COC(=O)NC(CCC(=O)O)C(=O)NC(CC(C)C)C(=O)NC(CS)C(=O)NCCc1cccc(Cl)c1 (stereo not drawn) [Compound 127]

Row | IC50 [µM] | Compound
30 | < 100 | CC(C)COC(=O)NC(CCC(=O)O)C(=O)NC(CC(C)C)C(=O)NC(CS)C(=O)NCCc1cccc(Br)c1 (stereo not drawn) [Compound 128]
31 | < 100 | CC(C)COC(=O)NC(CCC(=O)O)C(=O)NC(CC(C)C)C(=O)NC(CS)C(=O)NCCc1cccc(O)c1 (stereo not drawn) [Compound 129]
32 | < 100 | Cc1cccc(CCNC(=O)C(CS)NC(=O)C(CC(C)C)NC(=O)C(CCC(=O)O)NC(=O)OCC(C)C)c1 (stereo not drawn) [Compound 130]
33 | < 100 | CC(C)COC(=O)NC(CCC(=O)O)C(=O)NC(CC(C)C)C(=O)NC(CS)C(=O)NCCc1cccc(C(F)(F)F)c1 (stereo not drawn) [Compound 131]
34 | < 100 | COC(=O)c1cccc(CCNC(=O)C(CS)NC(=O)C(CC(C)C)NC(=O)C(CCC(=O)O)NC(=O)OCC(C)C)c1 (stereo not drawn) [Compound 132]
35 | < 100 | CC(C)COC(=O)NC(CCC(=O)O)C(=O)NC(CC(C)C)C(=O)NC(CS)C(=O)NCCc1cccc(-c2ccccc2)c1 (stereo not drawn) [Compound 136]
36 | < 100 | CC(C)COC(=O)NC(CCC(=O)O)C(=O)NC(CC(C)C)C(=O)NC(CS)C(=O)NCCc1cccc(Oc2ccccc2)c1 (stereo not drawn) [Compound 137]
37 | < 100 | CC(C)COC(=O)NC(CCC(=O)O)C(=O)NC(CC(C)C)C(=O)NC(CS)C(=O)NCCc1ccc(Cl)cc1 (stereo not drawn) [Compound 138]
38 | < 100 | CC(C)COC(=O)NC(CCC(=O)O)C(=O)NC(CC(C)C)C(=O)NC(CS)C(=O)NCCc1ccc(Br)cc1 (stereo not drawn) [Compound 139]
39 | < 100 | Cc1ccc(CCNC(=O)C(CS)NC(=O)C(CC(C)C)NC(=O)C(CCC(=O)O)NC(=O)OCC(C)C)cc1 (stereo not drawn) [Compound 140]
40 | < 100 | COc1ccc(CCNC(=O)C(CS)NC(=O)C(CC(C)C)NC(=O)C(CCC(=O)O)NC(=O)OCC(C)C)cc1 (stereo not drawn) [Compound 141]
41 | < 100 | COc1ccc(CCNC(=O)C(CS)NC(=O)C(CC(C)C)NC(=O)C(CCC(=O)O)NC(=O)OC(C)(C)C)cc1 (stereo not drawn) [Compound 142]
42 | < 100 | COc1ccc(CCNC(=O)C(CS)NC(=O)C(CC(C)C)NC(=O)C(CCC(=O)O)NC(=O)OCc2ccccc2)cc1 (stereo not drawn) [Compound 143]
43 | < 100 | CCOc1ccc(CCNC(=O)C(CS)NC(=O)C(CC(C)C)NC(=O)C(CCC(=O)O)NC(=O)OCC(C)C)cc1 (stereo not drawn) [Compound 144]
44 | < 100 | CC(C)COC(=O)NC(CCC(=O)O)C(=O)NC(CC(C)C)C(=O)NC(CS)C(=O)NCCc1ccc(Oc2ccccc2)cc1 (stereo not drawn) [Compound 145]
45 | < 100 | CC(C)COC(=O)NC(CCC(=O)O)C(=O)NC(CC(C)C)C(=O)NC(CS)C(=O)NCCc1ccc(O)cc1 (stereo not drawn) [Compound 146]
46 | < 100 | CC(C)COC(=O)NC(CCC(=O)O)C(=O)NC(CC(C)C)C(=O)NC(CS)C(=O)NCCc1ccc([N+](=O)[O-])cc1 (stereo not drawn) [Compound 147]
47 | < 100 | CC(C)COC(=O)NC(CCC(=O)O)C(=O)NC(CC(C)C)C(=O)NC(CS)C(=O)NCCc1ccc(C(C)(C)C)cc1 (stereo not drawn) [Compound 148]
48 | < 100 | CC(C)COC(=O)NC(CCC(=O)O)C(=O)NC(CC(C)C)C(=O)NC(CS)C(=O)NCCc1ccc(C(F)(F)F)cc1 (stereo not drawn) [Compound 149]
49 | < 100 | COC(=O)c1ccc(CCNC(=O)C(CS)NC(=O)C(CC(C)C)NC(=O)C(CCC(=O)O)NC(=O)OCC(C)C)cc1 (stereo not drawn) [Compound 150]
50 | < 100 | COC(=O)Cc1ccc(CCNC(=O)C(CS)NC(=O)C(CC(C)C)NC(=O)C(CCC(=O)O)NC(=O)OCC(C)C)cc1 (stereo not drawn) [Compound 153]

Row | Compound | IC50 [µM]
51 | CC(C)COC(=O)NC(CCC(=O)O)C(=O)NC(CC(C)C)C(=O)NC(CS)C(=O)NCCc1ccccc1 (stereo not drawn) [Compound 104] | < 100
52 | CC(C)CC(NC(=O)C(CCC(=O)O)NC(=O)OC(C)(C)C)C(=O)NC(CC(F)F)C(=O)NCCc1ccccc1 (stereo not drawn) [Compound 105] | < 100
53 | CC(C)COC(=O)N[C@@H](CCC(=O)O)C(=O)N[C@@H](CC(C)C)C(=O)N[C@@H](CS)C(=O)NCCc1cccc(/C=C/C(=O)O)c1 [Compound 134] | < 10
54 | CCOC(=O)/C=C/c1cccc(CCNC(=O)[C@H](CS)NC(=O)[C@H](CC(C)C)NC(=O)[C@H](CCC(=O)O)NC(=O)OCC(C)C)c1 [Compound 135] | < 100
55 | CC(C)COC(=O)NC(C(=O)NC(CC(C)C)C(=O)NC(CS)C(=O)NCCc1ccc(C(=O)O)cc1)C(C)C (stereo not drawn) [Compound 152] | < 10

same assay, conditions: Table 2; NS3 protease domain/Pep4AK; read-out: Assay B

Row | IC50 [µM] | Compound
56 | < 100 | CC(C)C[C@H](NC(=O)[C@H](CCC(=O)O)NC(=O)C1CCC(C(=O)O)CC1)C(=O)N[C@@H](CS)C(=O)NCCc1ccccc1Cl (mixture of isomers) [Compound 233]

same assay, conditions: Table 4; NS3 protease domain/Pep4AK; read-out: Assay B

Row | IC50 [µM] | Compound
57 | < 100 | CC(C)COC(=O)N[C@@H](CCC(=O)O)C(=O)NC(CC(F)(F)F)C(=O)N[C@@H](CS)C(=O)NCCc1ccc(C(=O)O)cc1 (mixture of isomers) [Compound 403]
